27 molecules from patent US9289412B2, “Role of limonoid compounds as neuroprotective agents” (The Johns Hopkins University, priority 2006, dated 2016) can be followed below.

Like-named read-outs stand apart in the source and are kept apart here.

The test system of data set [1] is rat mixed hippocampal cultures. The data set is described as follows: Titration of 3-NP for neurotoxic effects, MTT viability. The note with it: 3 mM 3-NP, 18 hours. The class given is cell-based. The protocol: FIG. 3 is a bar graph showing the effect of a series of 3-nitropropionic acid (3-NP) concentrations (0.5-10 mM) on survival of mixed hippocampal cell cultures in a [3-(4,5-dimethylthiazol-2-yl)-2,5-diphenyl tetrazolium bromide] (MTT) viability assay. Absorbance at 595 nm (corresponding to the absorbance of the reduced MTT formazan product) is directly proportional to cell viability.

Data set [2] has as its system rat mixed hippocampal cultures. Description: 3-NP neurotoxicity assay, MTT viability, rat mixed hippocampal cultures. The class given is cell-based. The conditions noted are these: for inhibition at 10 µM: Rattus norvegicus; for protection against 3-NP (FIG. 5): approximate values; for protection from oxidative damage elicited by 3-NP, in words (FIG. 4A): GPI 1046 1 μM, Resveratrol 25 μM. How it is done:
For example, a cell viability assay can be used in a preliminary screen on a large series of compounds each of which is tested at a fixed concentration. In some embodiments, mixed hippocampal cell cultures are prepared as described in, e.g., Haughey et al. (1999), J Neurochem, 73(4):1363-1374, and Haughey et al (2004), J Neurosci, 24(1):257-268. Subsequently, the cultures are pretreated for one hour in the presence of a candidate neuroprotective agent and then incubated with a cytotoxic agent for about 18 hours. Examples of cytotoxic agents include, but are not limited to, oxidative stressors (e.g., 3-nitropropionic acid (3-NP) or H2O2), excitatory amino acids (e.g., kainate), or neurotoxic proteins (e.g., Hiv Tat, or Aβ peptides). […] The level of protection (“percent protection”) provided by the test compound at a given test concentration in vitro can be expressed as: […]
A variety of methods for determining cell viability may be used. In some embodiments, cell viability is assessed based on the “MTT” assay method described in Mosmann (1983), J Immunol Methods, 65(1-2):55-63, or a variant thereof. This assay is based on the ability of a mitochondrial dehydrogenase enzyme from viable cells to cleave the tetrazolium rings of the pale yellow MTT and form dark blue formazan crystals, which are trapped in cells and readily quantified by ELISA spectrophotometry.
(§1) We sought to evaluate the protective efficacy of a number of modified terpenoid compounds against the against many different neurotoxins, ranging from the chemotoxic 6-OHDA, NMDA, 3-nitropropionic acid (3-NP), and viral proteins such as Tat and gp120. Thus, we established an in vitro neuroprotection assay using rat mixed hippocampal cultures, in which we evaluated the protective efficacy of neuroprotective compounds disclosed herein. The oxidative stressor 3-NP was used to elicit toxicity in the rat hippocampal cultures to mimic the oxidative damage, reactive oxygen species production and ensuing neurodegeneration resulting from HIV infection. Another measure of neurotoxicity which results from HIV infection was evaluated by exposure of the hippocampal cultures to HIV-1 Tat (Li et al (2005), Neurotox Res, 8(1-2): 119-134).
(§2) Rat mixed hippocamal neuronal cultures were generated from freshly dissected rat hippocampi (embryonic day 18) in neurobasal media containing 5% fetal bovine serum and 2% B27 supplement. The cells were plated into 96 well plates at a density of 4×10^5 cells/mL and routinely used on days 11-14 following culturing. Cell viability was assessed with MTT [3-(4,5-dimethylthiazol-2-yl)-2,5-diphenyltetrazolium bromide] assay. The MTT assay is based on the ability of a mitochondrial dehydrogenase enzyme from viable cells to cleave the tetrazolium rings of the pale yellow MTT and form dark blue formazan crystals. See Mosmann (1983), J Immunol Methods, 65(1-2):55-63. These crystals are largely impermeable to cell membranes, and thus accumulate within healthy cells. The resultant formazan precipitates are solubilized with DMSO and read on a multiwell scanning spectrophotometer (ELISA reader). The number of surviving cells is directly proportional to the level of the formazan product created.
Mixed hippocampal cultures were incubated with 3-NP (0.5-10 mM) for 18 hours and then assessed for viability using an MTT assay.
(§3) Cultures were preincubated with GPI 1046 or Resveratrol for one hour prior to an 18 hour exposure to 3 mM 3-NP. […] The same neuroprotective compounds were evaluated for efficacy against HIV-1 Tat protein toxicity using the same 1 hour preincubation protocol.

The test system of data set [3] is hippocampal cultures (HIV-1 Tat toxicity). The data set is described as follows: HIV-1 Tat toxicity assay, MTT viability, mixed hippocampal cultures. In kind it is cell-based, rat. The note with it: Tat 500 nM; for protection from HIV-1 Tat toxicity, in words (FIG. 4B): 1 h preincubation, GPI 1046 10 μM, Resveratrol 10 μM.
Source text: as §1, §2, §3

[4] abbreviates: Table 2, vs 3 mM 3-NP 18 h, 1 h preincubation, test concentration (10 μM).
Setting [5] is: Table 2, vs 3 mM 3-NP 18 h, 1 h preincubation, test concentration (10 μM), read-out: % Protection.
Setting [6] is: Table 3, 3 mM 3-NP 18 h, 1 h preincubation, test concentration (10 μM), read-out: % Protection vs 3-NP.
Setting [7] is: Table 3, 3 mM 3-NP 18 h, 1 h preincubation, test concentration (10 μM).
Setting [8] is: 3 mM 3-NP 18 h, 1 h preincubation.

As to `O=C(O)CC[N+](=O)[O-]` [Compound 3-NP, 3-nitropropionic acid], the cytotoxicity induced in data set [1] is given as 25-35%.

For the molecule `CC(=O)OC1CC2C(C)(C)CCC[C@]2(C)C2CC[C@]3(C)C(=CC(=O)O[C@H]3c3ccoc3)[C@]12C` (stereo partly shown) [DEOXODEOXYDIHYDRO- GEDUNIN, DEOXODEOXYDIHYDROGEDUNIN], the “% Protection” value in data set [2] (setting [4]) is listed as 77%.

Regarding `CC(=O)O[C@@H]1CC2C(C)(C)CCC[C@]2(C)C2CC[C@@]3(C)[C@H](c4ccoc4)OC(=O)C4OC43[C@@]21C` (stereo partly shown) [DEOXODIHYDROGEDUNIN], the inhibition at 10 µM in data set [2] (setting [5]) worked out at 101%.

On to `CC(=O)O[C@@H]1CC2C(C)(C)C(=O)C=C[C@]2(C)C2CC[C@@]3(C)C(=CC(=O)O[C@@H]3c3ccoc3)[C@@]21C` (stereo partly shown) [DEOXYGEDUNIN], for which the inhibition at 10 µM in data set [2] (setting [6]) was determined as 23%. Further, in data set [2] (setting [4]), the “% Protection” value is 23%.

Consider `CC(=O)OC1C=C[C@@]2(C)C(C[C@@H](OC(C)=O)[C@@]3(C)C4=CC(=O)O[C@@H](c5ccoc5)[C@]4(C)CCC23)C1(C)C` (stereo partly shown) [DEOXYGEDUNOL ACETATE], for which the inhibition at 10 µM in data set [2] (setting [5]) was determined as 54%.

For the molecule `CC(=O)OC1CC2C(C)(C)[C@H](OC(C)=O)C[C@H](OC(C)=O)[C@]2(C)C2CC[C@]3(C)C(=CC(=O)O[C@@H]3c3ccoc3)[C@]12C` (stereo partly shown) [DEOXYKHIVORIN], the inhibition at 10 µM in data set [2] (setting [5]) and in data set [2] (setting [6]) was 36% throughout.

`COC(=O)[C@@H]1OC(=O)C2OC23[C@@]1(C)CCC1[C@]2(C)C(C[C@@H](O)[C@]13C)C(C)(C)[C@H](OC(C)=O)C[C@@H]2OC(C)=O` (stereo partly shown) [DESACETYL (7)KHIVORINIC ACID, METHYL ESTER]: in data set [2] (setting [4]), the “% Protection” value is on record as 58%.

For the molecule `COC(=O)C[C@H]1C(C)(C)[C@@H](OC(C)=O)[C@@H]2CC3C4CC(=O)O[C@@H](c5ccoc5)[C@]4(C)CCC3[C@@]1(C)C2=O` (stereo partly shown) [DIHYDROFISSINOLIDE], the inhibition at 10 µM in data set [2] (setting [6]) was 12%.

As for `CC(=O)O[C@@H]1CC2C(C)(C)C3(CC[C@]2(C)C2CC[C@@]4(C)[C@H](c5ccoc5)OC(=O)C5OC54[C@@]21C)SCCS3` (stereo partly shown) [DIHYDROGEDUNIN ETHANEDITHIOKETAL], the “% Protection” value in data set [2] (setting [4]) is reported as 19%.

In the case of `CC(=O)O[C@@H]1CC2C(C)(C)C(=O)CC[C@]2(C)C2CC[C@@]3(C)[C@@H](c4ccoc4)OC(=O)C4OC43[C@@]21C` (stereo partly shown) [DIHYDROGEDUNIN], in data set [2] (setting [5]), the inhibition at 10 µM stood at 28%.

On to `CCC(C)C(=O)O[C@@H]1C[C@@]2(C)[C@H](c3ccoc3)OC(=O)CC23OC2(C)OC34[C@H](OC(=O)C(C)C)[C@@]3(O)[C@@H](OC(=O)C5(C)OC5C)[C@@]5(C)C[C@]3(O)[C@@](C)([C@H]5CC(=O)OC)C14O2` (stereo partly shown) [ENTANDROPHRAGMIN], for which the “% Protection vs 3-NP” value in data set [2] (setting [7]) was 18%.

Turning to `CC(=O)O[C@@H]1CC2C(C)(C)C(=O)C3OC3[C@]2(C)C2CC[C@@]3(C)[C@H](c4ccoc4)OC(=O)C4OC43[C@@]21C` (stereo partly shown) [EPOXYGEDUNIN], the “% Protection” value in data set [2] (setting [4]) was 69%.

On to `COC(=O)C[C@H]1C(C)(C)[C@@H](OC(C)=O)[C@@H]2CC3=C4CC(=O)O[C@@H](c5ccoc5)[C@]4(C)CC[C@@H]3[C@@]1(C)C2=O` [FISSINOLIDE], for which the inhibition at 10 µM in data set [2] (setting [6]) worked out at 28%.

Regarding `CC(=O)O[C@@H]1CC2C(C)(C)C(=O)C=C[C@]2(C)C2CC[C@@]3(C)[C@H](c4ccoc4)OC(=O)[C@H]4O[C@]43[C@@]21C` (stereo partly shown) [GEDUNIN], the “protection against 3-NP (FIG. 5)” value in data set [2] (3 mM 3-NP) is reported as “about 50%”. For the same molecule, the inhibition at 10 µM in data set [2] (setting [5]) came out at 40%. Further, the “neuroprotection from HIV-1 Tat toxicity, in words” value in data set [3] (1-10 μM compound) was “nearly complete neuroprotection”. The “dose dependence of protection from HIV-1 Tat toxicity (FIG. 7)” value in data set [3] (range of concentrations up to 10 μM) is “dose dependently protected”.

For the molecule `CC(=O)O[C@@H]1CC2C(C)(C)[C@H](O)C=C[C@]2(C)C2CC[C@@]3(C)[C@H](c4ccoc4)OC(=O)C4OC43[C@@]21C` (stereo partly shown) [GEDUNOL], the “% Protection” value in data set [2] (setting [4]) is 45%.

For the molecule `CCC(C)(C)C(=O)C(=O)N1CCC[C@H]1C(=O)OCCCc1cccnc1` [GPI 1046, reference compound], the “protection from oxidative damage elicited by 3-NP, in words (FIG. 4A)” value in data set [2] (setting [8]) is on record as “significantly protected”. Also, the “protection from HIV-1 Tat toxicity, in words (FIG. 4B)” value in data set [3] is “protected hippocampal neurons from Tat toxicity”.

As for `CC(=O)O[C@@H]1CC2C(C)(C)C=CC(=O)[C@]2(C)C2CC[C@@]3(C)[C@H](c4ccoc4)OC(=O)C4OC43[C@@]21C` (stereo partly shown) [ISOGEDUNIN], the inhibition at 10 µM in data set [2] (setting [5]) came out at 50%.

For `CC(=O)OC1C[C@H](OC(C)=O)[C@@]2(C)C(C[C@@H](OC(C)=O)[C@]3(C)C2CC[C@@]2(C)[C@H](c4ccoc4)OC(=O)[C@H]4O[C@]423)C1(C)C` (stereo partly shown) [KHIVORIN], the “protection against 3-NP, in words (FIG. 5A)” value in data set [2] (3 mM 3-NP, 10 μM of Khivorin) is given as “nearly complete protection”. Further, the inhibition at 10 µM in data set [2] (setting [5]) came to 70%.

`COC(=O)C[C@H]1C(C)(C)C(=O)[C@@H]2CC3=C4CC(=O)O[C@@H](c5ccoc5)[C@]4(C)CC[C@@H]3[C@@]1(C)C2=O` [MEXICANOLIDE]: the inhibition at 10 µM in data set [2] (setting [6]) is 9%.

Take `C=C1[C@@H]([C@@]2(C)[C@@H](OC(C)=O)CC(=O)O[C@](C)(COC(C)=O)[C@@H]2C(=O)OC)[C@@H](OC=O)[C@H](OC(=O)[C@H](O)[C@H](C)CC)[C@@]2(C)[C@H](c3ccoc3)CC(=O)[C@]12O` [PRIEURIANIN]: in data set [2] (18 h, read-out: % Protection vs 3-NP), the inhibition at 10 µM turned out to be 6%.

For the molecule `COC1=C[C@@H](C)[C@@H]2C[C@H]3OC(=O)C[C@H]4C(C)=C(OC)C(=O)[C@H]([C@@]2(C)C1=O)[C@@]34C` [QUASSIN], the inhibition at 10 µM in data set [2] (setting [6]) is 8%.

With `Oc1ccc(C=Cc2cc(O)cc(O)c2)cc1` [Resveratrol, reference compound], the “protection from oxidative damage elicited by 3-NP, in words (FIG. 4A)” value in data set [2] (setting [8]) is given as “significantly protected”. Moreover, the “protection from HIV-1 Tat toxicity, in words (FIG. 4B)” value in data set [3] was “protected hippocampal neurons from Tat toxicity”.

Turning to `CCC(C)C(=O)O[C@@H]1C[C@@]2(C)[C@H](c3ccoc3)OC(=O)CC23OC2(C)O[C@]14[C@]1(C)[C@@H](CC(=O)OC)C5(C)CC1(O)[C@](O)(C5OC(=O)C1(C)OC1C)[C@@H](OC(C)=O)[C@]34O2` (stereo partly shown) [UTILIN], the inhibition at 10 µM in data set [2] (setting [6]) is 16%.

For the molecule `C=C1C2CC[C@@]3(C)[C@H](c4ccoc4)OC(=O)C[C@]13OC1CC(=O)C(C)(C)C(CC(=O)OC)C12C` (stereo partly shown) [[…], METHYL ESTER], the “protection against 3-NP (FIG. 5)” value in data set [2] (3 mM 3-NP) was “about 50%”. Besides, the inhibition at 10 µM in data set [2] (setting [5]) and in data set [2] (setting [6]) was 33% each time.

With `C[C@@H]([C@H]1OC(C)(C)[C@@H](O)[C@H]1O)[C@@H]1CC[C@]2(C)C3=CC[C@H]4C(C)(C)C(=O)CC[C@]4(C)[C@H]3CC[C@@]12C` [odoratone], the “protection against 3-NP (FIG. 5)” value in data set [2] (3 mM 3-NP) was 60-70%.

Turning to KHAYANTHONE, the “% Protection vs 3-NP” value in data set [2] (setting [7]) is given as 36%.

Take KHAYASIN C: in data set [2] (setting [7]), the “% Protection vs 3-NP” value was 13%.
